Laboratory results taken from US10508120B2, “TYK2 inhibitors and uses thereof” (Nimbus Lakshmi, Inc., priority 2017, dated 2019).
Where two headings read alike, the source gives them in different places.

Legend:
[1] = target: human TYK2 (JH2domain-pseudokinase) (Homo sapiens (Human), UniProt P29597); assay: TYK2 JH2 Domain Binding Assay (KINOMEscan)
Procedure, shortened: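 The construct was human TYK2 G556–D888 fused to the NFkB DNA-binding domain and expressed in HEK293 cells; unpurified extract was incubated with compound and liganded beads for 1 hour at room temperature.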

Tyk2 kinase domain (DH1) = Tyk2 kinase domain (DH1) (Homo sapiens (Human), UniProt P29597); assay: Tyk2 Radioactive Kinase Assay; type: biochemical; conditions: for inhibition at 10 µM: read-out: Tyk2 JH1% Inhibition @ 10 μM
Tyk2 kinase domain (DH1), sequence (P29597 897-1176): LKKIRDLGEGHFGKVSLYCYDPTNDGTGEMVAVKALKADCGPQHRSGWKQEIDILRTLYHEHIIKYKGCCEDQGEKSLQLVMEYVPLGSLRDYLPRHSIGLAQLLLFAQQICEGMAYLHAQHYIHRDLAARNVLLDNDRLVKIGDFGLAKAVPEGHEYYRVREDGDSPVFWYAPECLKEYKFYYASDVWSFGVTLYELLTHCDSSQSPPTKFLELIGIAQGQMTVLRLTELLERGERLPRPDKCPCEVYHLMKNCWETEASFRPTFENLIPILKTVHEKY
Procedure, shortened: (§1)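 Each kinase domain is incubated with test compound at 10 μM. Activity is then measured radiometrically and expressed as percent inhibition relative to uninhibited enzyme.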

JAK2 kinase domain (JH1) = JAK2 kinase domain (JH1) (Homo sapiens (Human), UniProt O60674); assay: JAK2 Radioactive Kinase Assay; type: biochemical; conditions: for inhibition at 10 µM: read-out: JAK2 JH1% Inhibition @ 10 μM
JAK2 kinase domain (JH1), sequence (O60674 849-1124): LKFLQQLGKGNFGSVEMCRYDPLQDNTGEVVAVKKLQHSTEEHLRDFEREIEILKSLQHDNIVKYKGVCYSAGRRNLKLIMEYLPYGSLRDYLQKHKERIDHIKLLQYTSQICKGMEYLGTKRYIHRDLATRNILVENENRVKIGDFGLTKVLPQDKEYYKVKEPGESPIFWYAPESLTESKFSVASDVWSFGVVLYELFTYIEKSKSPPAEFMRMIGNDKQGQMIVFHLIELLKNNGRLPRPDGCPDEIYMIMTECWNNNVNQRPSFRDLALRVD
Procedure, shortened: as §1

[2] = target: Tyk2/JAK2 (heterodimeric complex) (Homo sapiens (Human), UniProt P29597); assay: IL-12 Induced pSTAT4 in Human PBMC; type: cell-based; conditions: 1.7 ng/mL IL-12
Tyk2/JAK2 (heterodimeric complex), sequence (P29597 whole entry, other chains not shown): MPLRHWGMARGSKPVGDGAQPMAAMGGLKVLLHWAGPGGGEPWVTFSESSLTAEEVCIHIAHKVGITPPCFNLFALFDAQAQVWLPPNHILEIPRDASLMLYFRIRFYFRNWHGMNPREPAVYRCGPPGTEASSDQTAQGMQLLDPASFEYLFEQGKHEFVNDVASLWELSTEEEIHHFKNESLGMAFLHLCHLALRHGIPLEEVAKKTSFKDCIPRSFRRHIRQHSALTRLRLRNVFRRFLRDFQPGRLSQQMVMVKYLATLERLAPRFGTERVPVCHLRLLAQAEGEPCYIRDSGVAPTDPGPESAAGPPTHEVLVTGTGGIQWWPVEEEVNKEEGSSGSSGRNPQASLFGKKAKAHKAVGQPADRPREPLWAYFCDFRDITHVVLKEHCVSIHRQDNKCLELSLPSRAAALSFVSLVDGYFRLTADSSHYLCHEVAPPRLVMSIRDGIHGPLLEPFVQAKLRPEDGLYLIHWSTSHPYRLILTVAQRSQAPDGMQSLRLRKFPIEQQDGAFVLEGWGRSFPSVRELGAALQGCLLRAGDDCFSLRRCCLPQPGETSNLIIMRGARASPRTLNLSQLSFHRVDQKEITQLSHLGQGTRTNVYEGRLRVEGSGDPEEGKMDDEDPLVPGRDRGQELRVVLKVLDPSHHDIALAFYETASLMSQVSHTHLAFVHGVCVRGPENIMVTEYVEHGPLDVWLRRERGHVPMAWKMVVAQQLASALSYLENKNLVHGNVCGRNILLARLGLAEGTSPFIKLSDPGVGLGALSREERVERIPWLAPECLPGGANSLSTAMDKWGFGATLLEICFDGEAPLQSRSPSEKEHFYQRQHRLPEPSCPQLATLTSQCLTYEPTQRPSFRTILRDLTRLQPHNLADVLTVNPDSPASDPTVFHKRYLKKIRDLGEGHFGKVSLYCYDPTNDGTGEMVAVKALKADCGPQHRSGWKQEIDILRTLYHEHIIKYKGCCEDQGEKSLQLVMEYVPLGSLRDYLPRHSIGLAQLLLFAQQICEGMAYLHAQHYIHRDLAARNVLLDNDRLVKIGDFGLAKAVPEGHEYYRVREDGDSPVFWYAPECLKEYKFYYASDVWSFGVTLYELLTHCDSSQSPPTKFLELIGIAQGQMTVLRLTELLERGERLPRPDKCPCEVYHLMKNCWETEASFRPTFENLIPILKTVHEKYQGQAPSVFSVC
Description: The IL-12 Induced pSTAT4 assay evaluates the inhibition of IL-12 induced STAT4 phophorylation mediated by Tyk2/JAK2 (heterodimeric complex).

[3] = target: JAK2/JAK2 homdimeric complex (Homo sapiens (Human), UniProt O60674); assay: GM-CSF Induced pSTAT5 in Human PBMC; type: cell-based; conditions: GM-CSF 5 ng/mL for 20 minutes, pSTAT5 by MSD, read-out: PBMC_GMCSF_pSTAT5 IC50
JAK2/JAK2 homdimeric complex, sequence (O60674 whole entry): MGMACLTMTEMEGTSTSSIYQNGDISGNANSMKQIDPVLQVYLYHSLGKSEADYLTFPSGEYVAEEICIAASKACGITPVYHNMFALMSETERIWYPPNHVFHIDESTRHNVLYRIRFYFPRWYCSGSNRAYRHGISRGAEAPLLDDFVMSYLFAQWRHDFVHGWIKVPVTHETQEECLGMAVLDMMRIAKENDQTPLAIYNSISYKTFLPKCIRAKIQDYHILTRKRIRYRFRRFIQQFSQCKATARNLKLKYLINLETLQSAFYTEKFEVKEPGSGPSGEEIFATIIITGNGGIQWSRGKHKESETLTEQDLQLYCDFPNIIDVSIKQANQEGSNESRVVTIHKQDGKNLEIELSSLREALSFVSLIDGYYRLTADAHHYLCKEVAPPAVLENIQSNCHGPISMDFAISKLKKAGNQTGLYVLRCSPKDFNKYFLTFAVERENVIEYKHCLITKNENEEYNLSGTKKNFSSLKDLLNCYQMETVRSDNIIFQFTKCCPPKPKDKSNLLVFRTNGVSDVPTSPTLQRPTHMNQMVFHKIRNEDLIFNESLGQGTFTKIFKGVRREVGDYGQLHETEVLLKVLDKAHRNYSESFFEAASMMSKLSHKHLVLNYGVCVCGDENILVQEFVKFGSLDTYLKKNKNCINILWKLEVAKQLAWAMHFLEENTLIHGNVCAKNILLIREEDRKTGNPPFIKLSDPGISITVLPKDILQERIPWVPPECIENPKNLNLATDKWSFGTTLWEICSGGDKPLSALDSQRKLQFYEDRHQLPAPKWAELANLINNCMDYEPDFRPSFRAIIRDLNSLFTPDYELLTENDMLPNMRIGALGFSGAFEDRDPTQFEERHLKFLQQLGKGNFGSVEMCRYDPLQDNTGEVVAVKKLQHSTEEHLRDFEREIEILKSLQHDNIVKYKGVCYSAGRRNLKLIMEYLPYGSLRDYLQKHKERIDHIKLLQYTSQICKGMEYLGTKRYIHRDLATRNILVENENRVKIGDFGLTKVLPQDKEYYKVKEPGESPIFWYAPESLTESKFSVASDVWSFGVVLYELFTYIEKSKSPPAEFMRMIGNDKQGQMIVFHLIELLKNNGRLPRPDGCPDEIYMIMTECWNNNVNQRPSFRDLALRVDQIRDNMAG
JAK2/JAK2 homdimeric complex, sequence (P32927 17-897 partner): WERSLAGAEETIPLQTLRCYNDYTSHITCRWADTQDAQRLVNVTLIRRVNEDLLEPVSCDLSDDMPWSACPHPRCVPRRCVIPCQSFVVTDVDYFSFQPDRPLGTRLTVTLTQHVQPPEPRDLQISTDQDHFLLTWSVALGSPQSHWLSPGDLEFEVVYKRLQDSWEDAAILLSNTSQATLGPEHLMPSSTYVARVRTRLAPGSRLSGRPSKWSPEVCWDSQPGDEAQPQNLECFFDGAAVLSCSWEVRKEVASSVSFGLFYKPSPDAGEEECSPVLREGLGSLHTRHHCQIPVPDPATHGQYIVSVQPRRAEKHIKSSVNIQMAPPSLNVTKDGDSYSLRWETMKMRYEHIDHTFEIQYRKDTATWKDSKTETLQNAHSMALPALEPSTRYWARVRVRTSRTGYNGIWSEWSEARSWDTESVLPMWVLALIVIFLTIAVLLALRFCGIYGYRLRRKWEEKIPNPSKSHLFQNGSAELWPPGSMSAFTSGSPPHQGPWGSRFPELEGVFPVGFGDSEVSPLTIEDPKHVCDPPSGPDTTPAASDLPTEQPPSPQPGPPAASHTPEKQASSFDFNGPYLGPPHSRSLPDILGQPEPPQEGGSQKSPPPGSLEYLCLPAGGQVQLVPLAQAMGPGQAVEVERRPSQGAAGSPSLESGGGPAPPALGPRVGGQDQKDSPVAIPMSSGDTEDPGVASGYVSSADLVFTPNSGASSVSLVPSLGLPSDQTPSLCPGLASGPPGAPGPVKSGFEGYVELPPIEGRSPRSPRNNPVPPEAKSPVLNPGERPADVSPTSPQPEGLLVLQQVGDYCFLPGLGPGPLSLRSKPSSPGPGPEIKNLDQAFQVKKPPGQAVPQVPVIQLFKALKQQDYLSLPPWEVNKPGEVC

human TYK2 (JH2domain-pseudokinase), sequence (P29597 556-888): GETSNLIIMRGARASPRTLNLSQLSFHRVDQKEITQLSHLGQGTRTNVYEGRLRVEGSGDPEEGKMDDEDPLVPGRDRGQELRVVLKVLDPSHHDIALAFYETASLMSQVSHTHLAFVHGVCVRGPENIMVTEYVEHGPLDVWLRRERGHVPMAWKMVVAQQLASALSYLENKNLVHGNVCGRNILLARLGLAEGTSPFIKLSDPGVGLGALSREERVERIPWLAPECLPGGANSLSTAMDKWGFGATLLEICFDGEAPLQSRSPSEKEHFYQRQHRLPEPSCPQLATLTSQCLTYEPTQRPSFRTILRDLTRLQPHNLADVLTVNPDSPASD

Kd [1]	inhibition at 10 µM (Tyk2 kinase domain (DH1); compound at 10 μM, ATP 10 μM)	inhibition at 10 µM (JAK2 kinase domain (JH1); compound at 10 μM, ATP 10 μM)	IC50 [2]	IC50 [3]	inhibition at 10 µM (Tyk2 kinase domain (DH1); 10 μM compound, 10 μM ATP)	inhibition at 10 µM (JAK2 kinase domain (JH1); 10 μM compound, 10 μM ATP)	Structure (SMILES)	Tyk2 JH1% Inhibition @ 10 μM (Tyk2 kinase domain (DH1); compound at 10 μM, ATP 10 μM)	JAK2 JH1% Inhibition @ 10 μM (JAK2 kinase domain (JH1); compound at 10 μM, ATP 10 μM)
0.2 to 1 nM	< 50%	< 50%	100 to 500 nM	> 50 µM			COc1ncccc1Nc1cc(NCCCN2CCOCC2)n2ncc(C(=O)N[C@@H]3C[C@@H]3F)c2n1 (stereo in doubt) [I-377, N-((1R,2S)-2-fluorocyclopropyl)-5-((2-methoxypyridin-3-yl)amino)-7-((3-morpholinopropyl)amino)pyrazolo[1,5-a]pyrimidine-3-carboxamide]		
< 0.2 nM	< 50%	< 50%	< 100 nM	> 12.5 µM			CNc1cc(Nc2cc(Cl)cn(-c3cnn(C)c3)c2=O)nc2c(C(=O)NC3CC3)cnn12 [I-311]		
< 0.2 nM			< 100 nM	> 50 µM	< 50%	< 50%	CNc1cc(Nc2cc(Cl)cn(C3CCN(C)CC3)c2=O)nc2c(C(=O)N[C@@H]3CC[C@H]3O)cnn12 [I-930]		
< 0.2 nM	< 50%	< 50%	< 100 nM	> 2.5 µM			CNc1cc(Nc2cccn(-c3cnc(C(=O)N(C)C)cn3)c2=O)nc2c(C(=O)NC3CCC3)cnn12 [I-122]		
< 0.2 nM			< 100 nM	> 12.5 µM			[2H]C([2H])([2H])Oc1ncccc1Nc1cc(NC)n2ncc(C(=O)N[C@H]3CC[C@H]3O)c2n1 (stereo in doubt) [I-399, N-((1 S,2R)-2-hydroxycyclobutyl)-5-((2-(methoxy-d3)pyridin-3-yl)amino)-7-(methylamino) pyrazolo[1,5-a]pyrimidine-3-carboxamide]	A (percent inhibition at 10 μM lower than 50)	A (percent inhibition at 10 μM lower than 50)
< 0.2 nM	< 50%	< 50%	< 100 nM	> 12.5 µM			CNc1cc(Nc2cccn([C@H]3CC[C@H](OC)CC3)c2=O)nc2c(C(=O)N[C@H]3C[C@H]3F)cnn12 [I-344]		
< 0.2 nM	< 50%	50 to 70%	< 100 nM	> 50 µM			CNc1cc(Nc2cccc([C@@H]3CCCOC3)n2)nc2c(C(=O)N[C@H]3C[C@H]3F)cnn12 [I-562]		
< 0.2 nM	< 50%	< 50%	< 100 nM	> 50 µM			CNc1cc(Nc2cccn(-c3nc(C)co3)c2=O)nc2c(C(=O)N[C@H]3C[C@H]3F)cnn12 [I-369]		
< 0.2 nM	< 50%	< 50%	< 100 nM	> 2.5 µM			CNc1cc(Nc2cccn(-c3ncc(C)s3)c2=O)nc2c(C(=O)NC3CCC3)cnn12 [I-263]		
< 0.2 nM	< 50%	< 50%	< 100 nM	> 50 µM			CNc1cc(Nc2cccn(-c3ccc(C)nn3)c2=O)nc2c(C(=O)NC3CCC3)cnn12 [I-141]		
0.2 to 1 nM	< 50%	< 50%	< 100 nM	> 2.5 µM			CNc1cc(Nc2cccn(-c3ccc(N4CCOCC4)cn3)c2=O)nc2c(C(=O)NC3CCC3)cnn12 [I-163]		
< 0.2 nM			100 to 500 nM	> 50 µM	< 50%	< 50%	CNc1cc(Nc2cccn(C3CCN(CCF)CC3)c2=O)nc2c(C(=O)NCC(C)(C)CO)cnn12 [I-847]		
< 0.2 nM	< 50%	< 50%	< 100 nM	> 50 µM			CNc1cc(Nc2cccnc2OC(F)F)nc2c(C(=O)NC3CCC3)cnn12 [I-151]		
< 0.2 nM			< 100 nM	> 50 µM	< 50%	< 50%	CNc1cc(Nc2cccn([C@H]3[C@@H]4COC[C@@H]43)c2=O)nc2c(C(=O)N[C@@H]3C[C@@H]3F)cnn12 [I-811]		
< 0.2 nM	< 50%	< 50%	< 100 nM	> 12.5 µM			[2H]C([2H])([2H])Oc1ncc(F)cc1Nc1cc(NC)n2ncc(C(=O)NC3CC3)c2n1 [I-284]		
< 0.2 nM	< 50%	< 50%	< 100 nM	> 2.5 µM			CNc1cc(Nc2cccn(-c3ncc(C)s3)c2=O)nc2c(C(=O)N[C@@H]3CC[C@@H]3O)cnn12 [I-677]		
< 0.2 nM	< 50%	< 50%	< 100 nM	> 12.5 µM			CNc1cc(-c2cn(C(C)C)c3ncccc23)nc2c(C(=O)N[C@H]3CC[C@H]3O)cnn12 [I-637]		
